Source: paper PMC7961380, “A Systematic Study of the In Vitro Pharmacokinetics and Estimated Human In Vivo Clearance of Indole and Indazole-3-Carboxamide Synthetic Cannabinoid Receptor Agonists Detected on the Illicit Drug Market” (Molecules, 2021)
Where two headings read alike, the source gives them in different places.

Experiments:
[1] = Metabolic stability, pooled human liver microsome incubations; details: for Predicted In Vivo Hepatic Clearance, CLH: from pHLM CLint, well-stirred model with plasma fu, Q 21 mL min^−1 kg^−1; for CLint scaled at 0.5 µM / half-life at 0.5 µM: human, microsomes; for CLint scaled at 0.5 µM: pH 7.4, Intrinsic clearance; for half-life at 0.5 µM: pH 7.4, T1/2 (min), pHLM 0.5 mg mL^−1, 0.5 µM, NADPH, 37 °C; for half-life at 0.5 µM / Microsomal Intrinsic Clearance, CLint micr: n ≥ 3 ± SD
[2] = Plasma protein binding by equilibrium dialysis; format: in vitro ADME, human; details: for fraction unbound at 5 h, 10 µg mL^−1: human, pooled human plasma, pH 7.4, equilibrium dialysis 5 h, 37 °C
[3] = Metabolic stability, pooled human cryopreserved hepatocyte incubations; details: human, hepatocytes; for CLint scaled at 0.5 µM: Intrinsic clearance, pHHeps, alternative hepatocyte cell density 99x10^6 hepatocytes per gram liver; for half-life at 0.5 µM: T1/2 (min), pHHeps 0.25 million cells mL^−1, 0.5 µM, 37 °C, n ≥ 3 ± SD
[4] = tested on: pooled human cryopreserved hepatocytes (pHHeps); assay: as above; details: for Predicted In Vivo Hepatic Clearance, CLH: from pHHeps CLint, well-stirred model with plasma fu, Q 21 mL min^−1 kg^−1
[5] = Short-term plasma stability with and without esterase inhibitors; details: 37 °C; for remaining at 3 h, 5 µM / remaining at 5 h: human, pH 7.4, Parent Compound Remaining (%)
[6] = pHLM, alternative microsomal scaling factor 32 mg microsomal protein per gram liver
[7] = pHLM, alternative microsomal scaling factor 45 mg microsomal protein per gram liver
[8] = pHLM, scaling factor 32 mg microsomal protein per gram liver
[9] = pHLM, scaling factor 45 mg microsomal protein per gram liver
[10] = 10 µg mL^−1, read-out: PPB (%) (converted)
[11] = plasma, read-out: Fraction Unbound (fu)
[12] = pHHeps, 99x10^6 hepatocytes per gram liver
[13] = Esterase Inhibitors, pH 7.4, BNPP and PMSF 500 µM each
[14] = plasma, No Esterase Inhibitors, pH 7.4, pooled human plasma

Row | Compound | Predicted In Vivo Hepatic Clearance, CLH [1] | Hepatic extraction ratio, EH ([1]; from pHLM incubations) | CLint scaled at 0.5 µM [1, 6] | CLint scaled at 0.5 µM [1, 7] | half-life at 0.5 µM [1] | % parent compound remaining, Average ([1]; pHLM, 3 min) | % parent compound remaining, Average ([1]; pHLM, 6 min) | % parent compound remaining, Average ([1]; pHLM, 9 min) | % parent compound remaining, Average ([1]; pHLM, 15 min) | % parent compound remaining, Average ([1]; pHLM, 30 min) | Microsomal Intrinsic Clearance, CLint micr ([1]; pHLM) | Hepatic extraction ratio, EH [1, 8] | Predicted in vivo hepatic clearance, CLH [1, 8] | Predicted in vivo hepatic clearance, CLH [1, 9] | fraction unbound at 5 h, 10 µg mL^−1 [2, 10] | fraction unbound at 5 h, 10 µg mL^−1 [2, 11] | CLint scaled at 0.5 µM [3] | half-life at 0.5 µM [3] | Predicted In Vivo Hepatic Clearance, CLH [4] | Hepatic extraction ratio, EH ([4]; from pHHeps incubations) | other results
1 | COC(=O)[C@@H](NC(=O)c1nn(Cc2ccc(F)cc2)c2ccccc12)C(C)C [(S)-AMB-FUBINACA (1), methyl [1-(4-fluorobenzyl)-1H-indazole-3-carbonyl]valinate] | 15.27 ± 0.14 mL/min/kg | 0.73 ± 0.006 | 1790 mL/min/kg | 2520 mL/min/kg | 0.6 ± 0.02 min | 3.8% | 0.7% | 0.2% | 0.1% | 0.3% | 2.182 ± 0.071 mL min^−1 mg Microsomal Protein^−1 | 0.62 ± 0.008 | 12.99 mL/min/kg | 14.60 mL/min/kg | 0.019 | 0.019 ± 0.0008 | 2980 mL/min/kg | 2.5 ± 0.55 min | 15.52 ± 0.85 mL/min/kg | 0.74 ± 0.041 | recovery (total peak area in dialysed samples vs 4 °C samples) ([2]; PPB thermal stability control, 5 h): 77 ± 4.4%; Hepatic extraction ratio, EH [4, 12]: 0.72 ± 0.042; Predicted in vivo hepatic clearance, CLH [4, 12]: 15.21 ± 0.88 mL/min/kg; % parent compound remaining, Average ([4]; pHHeps, 3 min): 37.0%; % parent compound remaining, Average ([4]; pHHeps, 6 min): 18.7%; % parent compound remaining, Average ([4]; pHHeps, 9 min): 14.7%; % parent compound remaining, Average ([4]; pHHeps, 15 min): 6.2%; % parent compound remaining, Average ([4]; pHHeps, 30 min): 1.4%; % parent compound remaining, Average ([4]; pHHeps, 45 min): 1.1%; % parent compound remaining, Average ([4]; pHHeps, 60 min): 0.8%; Parent Compound Remaining (%), Esterase Inhibitors ([5]; 5 h, pH 7.4, BNPP and PMSF 500 µM each): 93.5 ± 0.1%; Parent Compound Remaining (%), No Esterase Inhibitors ([5]; 5 h, pH 7.4, pooled human plasma): 85.9 ± 4.0%; remaining at 3 h, 5 µM [5, 13]: 96.1 ± 1.6%; remaining at 5 h ([5]; Esterase Inhibitors, 5 h, pH 7.4, BNPP and PMSF 500 µM each): 94 ± 0.1%; remaining at 3 h, 5 µM [5, 14]: 96.6 ± 3.8%; remaining at 5 h ([5]; plasma, No Esterase Inhibitors, 5 h, pH 7.4, pooled human plasma): 86 ± 4%
2 | C=CCCCn1cc(C(=O)N[C@H](C(=O)OC)C(C)(C)C)c2ccccc21 [(S)-MDMB-4en-PICA (12), methyl 3,3-dimethyl-2-[1-(pent-4-en-1-yl)-1H-indole-3-carboxamido]butanoate] | 5.69 ± 0.61 mL/min/kg | 0.27 ± 0.029 | 137 mL/min/kg | 192 mL/min/kg | 8.5 ± 1.3 min | 77.5% | 62.6% | 50.2% | 28.5% | 5.6% | 0.166 ± 0.024 mL min^−1 mg Microsomal Protein^−1 | 0.18 ± 0.022 | 3.88 mL/min/kg | 5.07 ± 0.57 mL/min/kg | 0.035 | 0.035 ± 0.0031 | 197 mL/min/kg | 37 ± 6.9 min | 5.46 ± 0.78 mL/min/kg | 0.26 ± 0.037 | Hepatic extraction ratio, EH [1, 9]: 0.24 ± 0.027; Hepatic extraction ratio, EH [4, 12]: 0.25; Predicted in vivo hepatic clearance, CLH [4, 12]: 5.15 mL/min/kg; % parent compound remaining, Average ([4]; pHHeps, 3 min): 93.4%; % parent compound remaining, Average ([4]; pHHeps, 6 min): 83.7%; % parent compound remaining, Average ([4]; pHHeps, 9 min): 80.4%; % parent compound remaining, Average ([4]; pHHeps, 15 min): 74.0%; % parent compound remaining, Average ([4]; pHHeps, 30 min): 51.6%; % parent compound remaining, Average ([4]; pHHeps, 45 min): 34.2%; % parent compound remaining, Average ([4]; pHHeps, 60 min): 25.0%; remaining at 3 h, 5 µM [5, 13]: 89.4 ± 2.3%; remaining at 3 h, 5 µM [5, 14]: 91.5 ± 8.6%
